{"source": "patent US20090099167A1", "about": "“Organic compounds” (Novartis Institutes for Biomedical Research, priority 2004, published 2009)", "key": {"[1]": {"target": "T1, human EphB4 receptor (Homo sapiens, UniProt P54760)", "T1 construct": "made in house; host or cells: Sf9 or Sf21 (baculovirus)", "T1 sequence (P54760 566-987)": "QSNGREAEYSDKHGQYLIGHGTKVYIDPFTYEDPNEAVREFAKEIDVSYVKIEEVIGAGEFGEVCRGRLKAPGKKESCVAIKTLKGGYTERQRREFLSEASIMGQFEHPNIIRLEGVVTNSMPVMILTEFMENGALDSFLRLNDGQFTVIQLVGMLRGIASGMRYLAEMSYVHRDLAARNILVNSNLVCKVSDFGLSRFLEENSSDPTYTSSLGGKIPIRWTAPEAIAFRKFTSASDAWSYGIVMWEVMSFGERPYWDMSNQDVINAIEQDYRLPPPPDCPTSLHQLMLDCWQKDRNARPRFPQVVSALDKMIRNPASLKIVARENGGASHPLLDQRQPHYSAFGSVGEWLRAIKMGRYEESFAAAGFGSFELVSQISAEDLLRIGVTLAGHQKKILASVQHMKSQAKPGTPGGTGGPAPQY", "test": "EphB4 kinase assay, GST-EphB, 33P incorporation into poly(Glu,Tyr)", "assay_type": "biochemical", "details": "Table 5; read-out: EphB4, IC50 class", "text": "EphB4: Production and measure of enzymatic activity: Generation of Bac-to-Bac™ (Initrogen Life Technologies, Basel, Switzerland) GST-fusion expression vectors: Entire cytoplasmatic coding regions of the EphB-class are amplified by PCR from cDNA libraries derived from human placenta or brain, respectively. Recombinant baculovirus are generated that express the amino acid region 566-987 of the human EphB4 receptor (SwissProt Database, Accession No. P54760). GST sequence is cloned into pFastBac1® vector (Invitrogen Life Technologies, Basel, Switzerland) and PCR amplified. cDNAs encoding EphB4-receptor domains, respectively, are cloned in frame 3′prime to the GST sequence into this modified FastBac1 vector to generate pBac-to-Bac™ donor vectors. Single colonies arising from the transformation are inoculated to give overnight cultures for small scale plasmid preparation. […] By automated sequencing the inserts and approximately 50 bp of the flanking vector sequences are confirmed on both strands. Production of viruses: Viruses for each of the kinases are made according to the protocol supplied by GIBCO if not stated otherwise. In brief, transfer vectors containing the kinase domains are transfected into the DH10Bac cell line (GIBCO) and plated on selective agar plates. Colonies without insertion of the fusion sequence into the viral genome (carried by the bacteria) are blue. Single white colonies are picked and viral DNA (bacmid) isolated from the bacteria by standard plasmid purification procedures. Sf9 cells or Sf21 cells are then transfected in 25 cm2 flasks with the viral DNA using Cellfectin reagent according to the protocol. Purification of GST-tagged kinases: The centrifuged cell lysate is loaded onto a 2 mL glutathione-sepharose column (Pharmacia) and washed three times with 10 mL of 25 mM Tris-HCl, pH 7.5, 2 mM EDTA, 1 mM DTT, 200 mM NaCl. The GST-tagged proteins are then eluted by 10 applications (1 mL each) of 25 mM Tris-HCl, pH 7.5, 10 mM reduced-glutathione, 100 mM NaCl, 1 mM DTT, 10% Glycerol and stored at −70° C. Protein kinase assays: The activities of protein kinases are assayed in the presence or absence of inhibitors, by measuring the incorporation of 33P from [γ33P]ATP into a polymer of glutamic acid and tyrosine (poly(Glu,Tyr)) as a substrate. The kinase assays with purified GST-EphB (30 ng) are carried out for 15-30 min at ambient temperature in a final volume of 30 μL containing 20 mM Tris.HCl, pH 7.5, 10 mM MgCl2, 3-50 mM MnCl2, 0.01 mM Na3VO4, 1% DMSO, 1 mM DTT, 3 μg/mL poly(Glu,Tyr) 4:1 (Sigma; St. Louis, Mo., USA) and 2.0-3.0 μM ATP (γ-[33P]-ATP 0.1 μCi). The assay is terminated by the addition of 20 μL of 125 mM EDTA. Subsequently, 40 μl of the reaction mixture are transferred onto Immobilon-PVDF membrane (Millipore, Bedford, Mass., USA) previously soaked for 5 min with methanol, rinsed with water, then soaked for 5 min with 0.5% H3PO4 and mounted on vacuum manifold with disconnected vacuum source. After spotting all samples, vacuum is connected and each well rinsed with 200 μl 0.5% H3PO4. Membranes are removed and washed 4× on a shaker with 1.0% H3PO4, once with ethanol. Membranes are counted after drying at ambient temperature, mounting in Packard TopCount96-well frame, and addition of 10 μL/well of Microscint™ (Packard). IC50 values are calculated by linear regression analysis of the percentage inhibition of each compound in duplicate, at four concentrations (usually 0.01, 0.1, 1 and 10 μM). One unit of protein kinase activity is defined as 1 nmole of 33P ATP transferred from [γ33P] ATP to the substrate protein per minute per mg of protein at 37° C. Compounds of formula I show EphB4 inhibition down to 10 nM, preferably IC50 values between 0.01-1.0 μM."}}}
{"smiles": "COc1cc(N2CCN(C)CC2)ccc1-c1cnn2c(N)c(-c3cccc(Cl)c3)c(C)nc12", "note": "[Example 75, 6-(3-Chloro-phenyl)-3-[2-methoxy-4-(4-methyl-piperazin-1-yl)-phenyl]-5-methyl-pyrazolo[1,5-a]pyrimidin-7-ylamine]", "values": [{"measurement": "melting point", "value": "215 to 217", "unit": "°C"}, {"measurement": "IC50", "setting": "[1]", "value": "< 1000", "unit": "nM"}]}
{"smiles": "Cc1nc2c(-c3ccc(N4CCN(C)CC4)cc3)cnn2c(N)c1-c1cccc(Cl)c1", "note": "[Example 73, 6-(3-Chloro-phenyl)-5-methyl-3-[4-(4-methyl-piperazin-1-yl)-phenyl]-pyrazolo[1,5-a]pyrimidin-7-ylamine]", "values": [{"measurement": "melting point", "value": "113 to 115", "unit": "°C"}, {"measurement": "IC50", "setting": "[1]", "value": "< 1000", "unit": "nM"}]}
{"smiles": "COc1ccc(-c2cnn3c(N)c(-c4cccc(Cl)c4)c(CF)nc23)cc1OC", "note": "[Example 92, 6-(3-Chloro-phenyl)-3-(3,4-dimethoxy-phenyl)-5-fluoromethyl-pyrazolo[1,5-a]pyrimidin-7-ylamine]", "values": [{"measurement": "melting point", "value": "228 to 230", "unit": "°C"}, {"measurement": "IC50", "setting": "[1]", "value": "< 1000", "unit": "nM"}]}
{"smiles": "Cc1nc2c(-c3cccc(N4CCN(CCO)CC4)c3)cnn2c(N)c1-c1cccc(Cl)c1", "note": "[Example 90, 2-(4-{3-[7-Amino-6-(3-chloro-phenyl)-5-methyl-pyrazolo[1,5-a]pyrimidin-3-yl]-phenyl}-piperazin-1-yl)-ethanol]", "values": [{"measurement": "melting point", "value": "108 to 116", "unit": "°C"}, {"measurement": "IC50", "setting": "[1]", "value": "< 1000", "unit": "nM"}]}
{"smiles": "CN1CCN(c2cccc(-c3cnn4c(N)c(-c5cccc(Br)c5)cnc34)c2)CC1", "note": "[Example 86, 6-(3-Bromo-phenyl)-3-[3-(4-methyl-piperazin-1-yl)-phenyl]-pyrazolo[1,5-a]pyrimidin-7-ylamine]", "values": [{"measurement": "melting point", "value": "195.3 to 197.2", "unit": "°C"}, {"measurement": "IC50", "setting": "[1]", "value": "1000 to 10000", "unit": "nM"}]}
{"smiles": "CN1CCN(c2cccc(-c3cnn4c(N)c(Cc5cccc(Br)c5)cnc34)c2)CC1", "note": "[Example 85, 6-(3-Bromo-benzyl)-3-[3-(4-methyl-piperazin-1-yl)-phenyl]pyrazolo[1,5-a]pyrimidin-7-ylamine]", "values": [{"measurement": "melting point", "value": "170 to 171", "unit": "°C"}, {"measurement": "IC50", "setting": "[1]", "value": "1000 to 10000", "unit": "nM"}]}
{"smiles": "Cc1nc2c(-c3cccc(N4CCN(C5CCN(C)CC5)CC4)c3)cnn2c(N)c1-c1cccc(Cl)c1", "note": "[Example 81, 6-(3-Chloro-phenyl)-5-methyl-3-{3-[4-(1-methyl-piperidin-4-yl)-piperazin-1-yl]-phenyl}-pyrazolo[1,5-a]pyrimidin-7-ylamine]", "values": [{"measurement": "melting point", "value": "180 to 185", "unit": "°C"}, {"measurement": "IC50", "setting": "[1]", "value": "< 1000", "unit": "nM"}]}
{"smiles": "COc1ccc(-c2cnn3c(N)c(-c4cccc(Cl)c4)c(C)nc23)cc1", "note": "[Example 88, 6-(3-Chloro-phenyl)-3-(4-methoxy-phenyl)-5-methyl-pyrazolo[1,5-a]pyrimidin-7-ylamine]", "values": [{"measurement": "melting point", "value": "171 to 172", "unit": "°C"}, {"measurement": "IC50", "setting": "[1]", "value": "< 1000", "unit": "nM"}]}
{"smiles": "Cc1nc2c(-c3cccc(N4CCN(C)CC4)c3)cnn2c(N)c1-c1cccc(Br)c1", "note": "[Example 84, 6-(3-Bromo-phenyl)-5-methyl-3-[3-(4-methyl-piperazin-1-yl)-phenyl]-pyrazolo[1,5-a]pyrimidin-7-ylamine]", "values": [{"measurement": "melting point", "value": "107 to 113", "unit": "°C"}, {"measurement": "IC50", "setting": "[1]", "value": "< 1000", "unit": "nM"}]}
{"smiles": "COc1ccc(-c2cnn3c(N)c(-c4ccc(F)c(Cl)c4)c(C)nc23)cc1", "note": "[Example 95, 6-(3-Chloro-4-fluoro-phenyl)-3-(4-methoxy-phenyl)-5-methyl-pyrazolo[1,5-a]pyrimidin-7-ylamine]", "values": [{"measurement": "melting point", "value": "224 to 227", "unit": "°C"}, {"measurement": "IC50", "setting": "[1]", "value": "< 1000", "unit": "nM"}]}
{"smiles": "Cc1nc2c(-c3cccc(N4CCN(C)CC4)c3)cnn2c(N)c1-c1ccc(F)cc1", "note": "[Example 80, 6-(4-Fluoro-phenyl)-5-methyl-3-[3-(4-methyl-piperazin-1-yl)-phenyl]-pyrazolo[1,5-a]pyrimidin-7-ylamine]", "values": [{"measurement": "melting point", "value": "204 to 206", "unit": "°C"}, {"measurement": "IC50", "setting": "[1]", "value": "< 1000", "unit": "nM"}]}
{"smiles": "COc1ccc(-c2cnn3c(N)c(-c4cccc(Cl)c4)c(C)nc23)cc1OC", "note": "[Example 93, 6-(3-Chloro-phenyl)-3-(3,4-dimethoxy-phenyl)-5-methyl-pyrazolo[1,5-a]pyrimidin-7-ylamine]", "values": [{"measurement": "melting point", "value": "223 to 226", "unit": "°C"}, {"measurement": "IC50", "setting": "[1]", "value": "< 1000", "unit": "nM"}]}
{"smiles": "Cc1nc2c(-c3cccc(N4CCN(CCO)CC4)c3)cnn2c(N)c1-c1ccc(F)cc1", "note": "[Example 97, 2-(4-{3-[7-Amino-6-(4-fluoro-phenyl)-5-methyl-pyrazolo[1,5-a]pyrimidin-3-yl]-phenyl}-piperazin-1-yl)-ethanol]", "values": [{"measurement": "melting point", "value": "209 to 212", "unit": "°C"}, {"measurement": "IC50", "setting": "[1]", "value": "< 1000", "unit": "nM"}]}
{"smiles": "Cc1nc2c(-c3cccc(N4CCN(CCO)CC4)c3)cnn2c(N)c1-c1ccc(F)c(F)c1", "note": "[Example 101, 2-(4-{3-[7-Amino-6-(3,4-difluoro-phenyl)-5-methyl-pyrazolo[1,5-a]pyrimidin-3-yl]-phenyl}-piperazin-1-yl)-ethanol]", "values": [{"measurement": "melting point", "value": "172 to 174", "unit": "°C"}, {"measurement": "IC50", "setting": "[1]", "value": "< 1000", "unit": "nM"}]}
{"smiles": "Cc1nc2c(-c3cccc(N4CCN(C)CC4)c3)cnn2c(N)c1-c1cccc(Cl)c1", "note": "[Example 72, 6-(3-Chloro-phenyl)-5-methyl-3-[3-(4-methyl-piperazin-1-yl)-phenyl]-pyrazolo[1,5-a]pyrimidin-7-ylamine]", "values": [{"measurement": "melting point", "value": "110 to 115", "unit": "°C"}, {"measurement": "IC50", "setting": "[1]", "value": "< 1000", "unit": "nM"}]}
{"smiles": "CN1CCN(c2cccc(-c3cnn4c(N)c(-c5ccccc5Cl)cnc34)c2)CC1", "note": "[Example 78, 6-(2-Chloro-phenyl)-3-[3-(4-methyl-piperazin-1-yl)-phenyl]-pyrazolo[1,5-a]pyrimidin-7-ylamine]", "values": [{"measurement": "melting point", "value": "200 to 203", "unit": "°C"}, {"measurement": "IC50", "setting": "[1]", "value": "< 1000", "unit": "nM"}]}
